Test results from ChEMBL document CHEMBL1150507, “New hydroxy-amido-anthraquinones as potential antineoplastic drugs” (1992).

What was measured:
HeLa = assay: Compound was tested for tumor cell growth inhibition against HeLa cell line; format: functional; conditions: Homo sapiens, read-out: ID50 (the source's name)
HL-60 = assay: Compound was tested for tumor cell growth inhibition against HL 60 cell line; format: functional; conditions: Homo sapiens, read-out: ID50 (the source's name)

SMILES | IC50 (HeLa) [nM] | IC50 (HL-60) [nM]
O=C1c2c(O)ccc(O)c2C(=O)c2c(NCCNCCO)ccc(NCCNCCO)c21 [MITOXANTRONE] | 2770 | 90
CCN(CC)CC(=O)Nc1ccc(O)c2c1C(=O)c1c(O)ccc(O)c1C2=O | 26100 | 1640

Second part, the compound after the results:

IC50 (HeLa) [nM] | IC50 (HL-60) [nM] | SMILES
3140 | 100 | CCN(CC)CCC(=O)Nc1ccc(NC(=O)CCN(CC)CC)c2c1C(=O)c1c(O)ccc(O)c1C2=O
> 38000 | 4900 | CCN(CC)CC(=O)Nc1ccc(NC(=O)CN(CC)CC)c2c1C(=O)c1c(O)ccc(O)c1C2=O
8050 | 110 | CCN(CC)CCC(=O)Nc1ccc(O)c2c1C(=O)c1c(O)ccc(O)c1C2=O
